From article PMC4434572, “Identification of novel drugs to target dormant micrometastases” (BMC Cancer, 2015) come the findings set out here.

For one data set, the system named is MDA-MB-435 cells. Kind of data set: Proliferation (CFDA-AM esterase assay) of cells grown on SISgel, plastic or Matrigel, 48 h drug exposure. Conditions: for EC50: Homo sapiens. The format is cell-based. From the text: The libraries were obtained from the NCI (Diversity Library I) comprised of 2,918 compounds and a 10,000 compound diversity library from ChemBridge, Inc. (DiverSet-EXP). The NCI library is no longer available in the form used here, but how it was constructed is described (http://dtp.nci.nih.gov/branches/dscb/diversity_explanation.html). The ChemBridge library is a subset (Set Code NM1024) of the full 50,000 compound library (http://www.chembridge.com/screening_libraries/diversity_libraries/). Compounds were diluted to 100 μM before use. SISgel was prepared as described previously from powdered porcine small intestine submucosa obtained from Cook Biotech (W. Lafayette, IN). It is a natural product that is used extensively in tissue engineering as a bioscaffold. J82 bladder cancer cells and other cell lines were obtained from the ATCC (Bethesda, MD). The basic principle is that cells grown on any ECM are, in general, expected to show higher resistance to anticancer compounds than when grown on plastic. Therefore, compounds that show a higher activity toward cancer cells on a normal ECM than on a plastic surface would be candidates to target suppressed, micrometastatic cells. Efficacy in vitro was assessed by plating 30,000 cells in 50 μL of high glucose DMEM with penicillin-streptomycin and 10 % fetal calf serum on SISgel in a 96-well plate containing 50 μL of gelled SISgel per well. Cells were allowed to attach and assume the SISgel phenotype for 48 h. A matching plate without SISgel was prepared 24 h later by pipetting 3,000 cells in 100 μL of high glucose DMEM with penicillin-streptomycin and 10 % fetal calf serum into each well of 96 well plate. The cells were allowed to attach and grow for 24 h. These numbers of cells gave approximately equal replication rates at the time drug was added for cells grown on the plastic surface or SISgel as determined by the fraction of S-phase cells identified by flow cytometry. The cells were exposed to drug in fresh medium for 48 h, at which time the cell number was determined using the CFDA-AM cellular esterase proliferation assay (cat. #C1354, Life Technologies). For screening the results are reported as the ratio of cell count of cells on the plastic surface to the cell count on SISgel. An initial difference of 1.5 fold identified potential hits. All potential hits were confirmed in triplicate. Those compounds that replicated were confirmed by a full dose–response study yielding an EC50 using five wells per drug concentration. Data were analyzed using nonlinear regression to a sigmoid curve with Prism 4 (GraphPad Software, Inc., LaJolla, CA). Potential hits that were confirmed by dose–response using J82 were also tested with MDA-MB-435 breast cancer, PC-3 metastatic prostate cancer, Capan1 pancreatic cancer and the J82 bladder cancer cell lines.

Another data set in a line: in vivo. To be noted: mouse.
The next data set deals with mice. Kind of data set: Toxicity / maximum tolerated dose in mice. Conditions: mice.
Data set [1] has as its system 4T1 stem cells (CD44v3highALDH1high 4T1 cells). Kind of data set: Tumor cell growth inhibition of sphere-derived cancer stem cells (CellTiter-Glo). The format is cell-based, mouse. To be noted: suspension culture, 5 days; read-out: EC50 4T1 stem cells in suspension culture. The method, then: Sphere formation to further increase the fraction of cancer stem cells was induced by suspending CD44v3highALDH1high 4T1 cells in 1:1 Matrigel/basal medium in a total of volume of 100 μl. Samples (5 × 10^4 cells) were then plated around the rims of wells in a 12-well plate and allowed to solidify at 37 °C for 10 min before 1 ml basal medium (with B27 plus 20 ng/mL EGF, 10 ng/mL FGF and 4 μg/mL insulin) was added. Medium was replenished every 3-days. Ten days after plating, spheres (tight, spherical, nonadherent masses >40 μm in diameter) per well were counted, and at least 100 spheres per group were measured. The number of spheres containing CD44v3highALDH1high 4T1 cells in each well and expressed as sphere forming units (SFU) as described previously. The number of SFUs per well was counted in triplicate wells for each condition.
To recover CD44v3highALDH1high 4T1 cells from the spheres, Matrigel–containing wells were treated with 1 mg/ml Dispase solution (Gibco). Spheres were then digested with trypsin and 0.05 % EDTA. CD44v3highALDH1high cells dissociated from spheres were counted by hemacytometer and replated to generate spheres of next generation. Serial passage of individual spheres was regularly performed in order to verify self-renewal capability of cells associated the spheres. Measurement of growth for CD44v3highALDH1high cells (dissociated from spheres) was also performed by incubating these cells in serum-free RPMI-1640 medium for 3-weeks using MTT-based growth assay as described previously.
To analyze tumor cell growth properties, sphere-derived CD44v3highALDH1high 4T1 cells were incubated in basal medium (with B27 plus 20 ng/mL EGF, 10 ng/mL FGF and 4 μg/mL insulin). Medium was replenished every 3-days. Twenty-one days after plating, the number of cell growth was then counted under a microscope at low magnification. In some cases, these sphere-derived CD44v3highALDH1high 4T1 cells were also treated with DT compounds for 5 days or doxorubicin (range 1 μM to 1 mM) for 5 days at 37 °C. The CellTiter-Glo® Luminescent Cell Viability Assay (Promega, Madison, WI) was utilized to determine the number of metabolically active cells based on the quantification of adenosine triphosphate (ATP). The percentage of […] relative to untreated controls was plotted as a linear function of drug concentration. The 50 % inhibitory concentration (IC50) was identified as the concentration of drug required to achieve a 50 % growth inhibition relative to untreated controls.
A stem cell–enriched cell population was prepared as described previously by sorting for ALDH1 and CD44v3. The identification of aldehyde dehydrogenase1 (ALDH1) activity from tumor–derived 4T1 Luc2-GFP cells (PerkinElmer, Waltham, MA) was conducted using the ALDEFLUOR kit (StemCell Technologies, Durham, NC). Specifically, tumor cells were suspended in ALDEFLUOR assay buffer containing ALDH1 substrate (BAAA, […] per 1 × 10^6 cells) and incubated for 30 min at 37 °C. As a negative control, 4T1 cells were treated with a specific ALDH1 inhibitor, […] diethylaminobenzaldehyde (DEAB). Next, for labeling cell surface marker, tumor–derived 4T1 cells were suspended in 100 μl ALDEFLUOR buffer followed by incubating with 20 μl allophycocyanin (APC)-labeled anti-CD44v3 antibody (recognizing the v3-specific domain of CD44) or APC-labeled normal mouse IgG (as a control) (BD Bioscience, San Jose, CA) for 15 min at 4 °C. For FACS sorting, tumor cells were incubated in PBS buffer followed by FACS (BD FACS Aria llu, BD Bioscience, San Jose, CA) sorting using dual-wavelength analysis as described previously. The parental cell line contained 2 % CD44v3highALDH1high cells but the final sorted cells contained 18 % CD44v3highALDH1high cells, a 9-fold enrichment.
Background: ATP-based viability assays read luminescence as a measure of living cells.

For data set [2], the system named is cancer cells on SISgel or plastic. Nature of the data set: Activity of leads and analogs on cancer cells grown on plastic vs SISgel (cell line not stated). The data set is classed as cell-based. Conditions: for SR: ratio IC50-p/IC50-S; for Hit: YES/NO. As to the method: The NCI library is no longer available in the form used here, but how it was constructed is described (http://dtp.nci.nih.gov/branches/dscb/diversity_explanation.html). The ChemBridge library is a subset (Set Code NM1024) of the full 50,000 compound library (http://www.chembridge.com/screening_libraries/diversity_libraries/). Compounds were diluted to 100 μM before use. SISgel was prepared as described previously from powdered porcine small intestine submucosa obtained from Cook Biotech (W. Lafayette, IN). It is a natural product that is used extensively in tissue engineering as a bioscaffold. J82 bladder cancer cells and other cell lines were obtained from the ATCC (Bethesda, MD). […] Efficacy in vitro was assessed by plating 30,000 cells in 50 μL of high glucose DMEM with penicillin-streptomycin and 10 % fetal calf serum on SISgel in a 96-well plate containing 50 μL of gelled SISgel per well. Cells were allowed to attach and assume the SISgel phenotype for 48 h. A matching plate without SISgel was prepared 24 h later by pipetting 3,000 cells in 100 μL of high glucose DMEM with penicillin-streptomycin and 10 % fetal calf serum into each well of 96 well plate. The cells were allowed to attach and grow for 24 h. […] The cells were exposed to drug in fresh medium for 48 h, at which time the cell number was determined using the CFDA-AM cellular esterase proliferation assay (cat. #C1354, Life Technologies). For screening the results are reported as the ratio of cell count of cells on the plastic surface to the cell count on SISgel. An initial difference of 1.5 fold identified potential hits. All potential hits were confirmed in triplicate. […] Data were analyzed using nonlinear regression to a sigmoid curve with Prism 4 (GraphPad Software, Inc., LaJolla, CA). […]

[3] abbreviates: cells on SISgel, read-out: IC50-S.
Setting [4] is: cells on plastic, read-out: IC50-p.

Like-named read-outs stand apart in the source and are kept apart here.

Turning to `COc1ccc(CC(=O)Oc2ccc3c(c2)C(C)=CC(C)(C)N3)cc1` [DT350, 2,2,4-trimethyl-1,2-dihydro-6-quinolinyl (4-methoxyphenyl)-acetate], the EC50 (as a rule, the concentration at which the effect is half-maximal) in the data set on MDA-MB-435 cells (MDA-MB-435 cells on SISgel, read-out: EC50-S) is 270 µM. Further, the EC50 in the data set on MDA-MB-435 cells (MDA-MB-435 cells on plastic, read-out: EC50-P) is 1830 µM. Moreover, the “SI (EC50-P/EC50-S)” value in the data set with MDA-MB-435 cells (ratio of EC50 on plastic versus SISgel) worked out at 6.8. The same compound registered an MTD in the data set “in vivo” of under 10 mg/kg. In the data set with mice, the “doses at which highly toxic to mice” value is recorded as “less than 10 mg/kg” and the “toxicity in mice” value was “dose-limiting toxicity”.
As for `O=S(=O)([O-])c1ccc(N=Nc2ccc(O)c3ccccc23)cc1.[Na+]` [Orange 1], the EC50 in data set [1] was found to be 398 µM. For the same compound, the IC50 – broadly, the concentration that inhibits the measured activity by half – in data set [2] (setting [3]) turned out to be 1200 µM; in data set [2] (setting [4]) it was 657 µM. Besides, the SR in data set [2] is reported as 0.55.
As to `Cc1cc(C)c(N=Nc2c(O)c(S(=O)(=O)[O-])cc3cc(S(=O)(=O)[O-])ccc23)cc1C.[Na+].[Na+]` [Ponceau 3R], the IC50 in data set [2] (setting [3]) came out at 111 µM; in data set [2] (setting [4]), 146 µM. For the same compound, the SR in data set [2] amounted to 1.3.
For `Nc1cc(S(=O)(=O)[O-])cc2cc(S(=O)(=O)[O-])c(N=Nc3cc([N+](=O)[O-])ccc3O)c(O)c12.[Na+].[Na+]` [Palatine Chrome Green], the IC50 in data set [2] (setting [3]) turned out to be 70 µM; in data set [2] (setting [4]) it was 74 µM. The SR in data set [2] worked out at 1.1.
`O=S(=O)([O-])c1cc(O)c2c(N=Nc3c(S(=O)(=O)[O-])cc4cc(S(=O)(=O)[O-])cc(O)c4c3O)cc(S(=O)(=O)[O-])cc2c1.[Na+].[Na+].[Na+].[Na+]` [Beryllon II]: the Hit result in data set [2] was “YES”. Moreover, the IC50 in data set [2] (setting [3]) was 33 µM; in data set [2] (setting [4]), 94 µM. Also, the SR in data set [2] is 3.
Regarding `CCN(Cc1cccc(S(=O)(=O)[O-])c1)c1ccc(C(=C2C=CC(=[N+](CC)Cc3cccc(S(=O)(=O)[O-])c3)C=C2)c2ccccc2Cl)cc1.[Na+]` [Alizarin Green], the IC50 in data set [2] (setting [3]) is 621 µM; in data set [2] (setting [4]), 414 µM. Besides, the SR in data set [2] stood at 0.67.
For the compound `Cc1cc(C)c(S(=O)(=O)[O-])cc1N=Nc1cc(S(=O)(=O)[O-])c2ccccc2c1O.[Na+].[Na+]` [Ponceau SX], in data set [2], the Hit result is listed as “YES” and the SR was found to be 3.8. Also, the IC50 in data set [2] (setting [3]) is 54.1 µM. Besides, the IC50 in data set [2] (setting [4]) is 208 µM.
Take `O=S(=O)(O)c1ccc2c(N=Nc3c(O)c(S(=O)(=O)O)cc4cc(S(=O)(=O)O)ccc34)c(O)c(S(=O)(=O)O)cc2c1` [2-2-dihydroxy-1-1-azo-naphthalene-3-3-6]: the IC50 came to 111 µM in data set [2] (setting [3]) and 213 µM in data set [2] (setting [4]). Further, in data set [2], the SR worked out at 1.9.
For `O=S(=O)([O-])c1cc(Nc2nc(Cl)nc(Cl)n2)c2c(O)c(N=Nc3ccccc3)c(S(=O)(=O)[O-])cc2c1.[Na+].[Na+]` [Procion Red Mx - 5B] the same measures were 57 µM, 77 µM and 1.4.
For `O=S(=O)([O-])c1ccc(N=Nc2c(O)ccc3ccccc23)cc1.[Na+]` [Acid Orange 7] the same measures were 400 µM, 114 µM and 0.29.
In the case of `COc1ccccc1N=Nc1c(S(=O)(=O)[O-])cc2cc(S(=O)(=O)[O-])cc(NC(C)=O)c2c1O.[Na+].[Na+]` [Pontacyl Carmine 2B], in data set [2], the Hit result is reported as “YES” and the SR stood at 2.2. In addition, the 50% inhibitory concentration (IC50) in data set [2] (setting [3]) was found to be 24 µM. For the same compound, in data set [2] (setting [4]), the IC50 was 53 µM.
For the compound `O=S(=O)([O-])c1cc(S(=O)(=O)[O-])c2c(N=Nc3ccc(S(=O)(=O)[O-])c4ccccc34)c(O)c(S(=O)(=O)[O-])cc2c1.[Na+].[Na+].[Na+].[Na+]` [Ponceau 6R], the IC50 in data set [2] (setting [3]) was determined as 107 µM; in data set [2] (setting [4]), 124 µM. For the same compound, the SR in data set [2] was 1.2.
For `O=[N+]([O-])c1ccc(N=Nc2c(S(=O)(=O)[O-])cc3cc(S(=O)(=O)[O-])cc(O)c3c2O)cc1.[Na+].[Na+]` [Acid Red 60 Chromotrope 2B], in that order: 22 µM, 26 µM and 1.2.
For the compound `O=S(=O)([O-])c1cc2cc(S(=O)(=O)O)ccc2c(N=Nc2c(O)cc(S(=O)(=O)[O-])c3ccccc23)c1O.[Na+].[Na+]` [Hydroxy Naphthol Blue], the Hit result in data set [2] is “YES”. The IC50 in data set [2] (setting [3]) stood at 72 µM; in data set [2] (setting [4]) it was 146 µM. Also, the SR in data set [2] was 2.0.
